Consider 19 compounds from patent publication US12202818B2, “Compounds and methods for CD73 modulation and indications therefor” (Opna Bio SA, priority 2020, dated 2025).

What is called pIC50 is the negative decadic logarithm of the IC50, by convention in mol/L.

pIC50: −log10 of the molar value.

In test [1] the target is T1, Human CD73 (amino acid residues 27-549) (Homo sapiens, UniProt P21589).
T1 construct: Human CD73 (amino acid residues 27-549); His tag (N); made in house; host or cells: E. coli
T1 sequence (P21589 27-549): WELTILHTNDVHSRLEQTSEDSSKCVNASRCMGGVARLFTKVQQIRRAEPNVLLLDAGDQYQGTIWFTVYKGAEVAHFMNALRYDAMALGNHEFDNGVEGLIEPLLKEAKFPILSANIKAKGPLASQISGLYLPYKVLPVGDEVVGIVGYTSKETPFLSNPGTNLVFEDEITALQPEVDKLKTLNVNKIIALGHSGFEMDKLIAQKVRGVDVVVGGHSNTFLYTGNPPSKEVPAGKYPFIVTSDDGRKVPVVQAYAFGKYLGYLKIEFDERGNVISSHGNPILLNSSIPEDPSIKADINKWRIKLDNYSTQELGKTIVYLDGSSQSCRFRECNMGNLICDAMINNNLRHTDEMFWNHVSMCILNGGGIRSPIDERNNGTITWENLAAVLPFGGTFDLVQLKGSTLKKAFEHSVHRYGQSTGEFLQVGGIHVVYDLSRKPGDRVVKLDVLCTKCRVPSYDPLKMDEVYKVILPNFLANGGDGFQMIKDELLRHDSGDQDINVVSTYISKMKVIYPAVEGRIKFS
Put plainly: CD73 enzymatic assay (luciferase-based indirect assay, CellTiter-Glo). Type of test: biochemical. The settings on record: 0.4 nM CD73, 150 μM AMP, 1 hour at room temperature. The essentials: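 N-His human CD73 (27-549) expressed in E. coli, 0.4 nM, incubated with 150 μM AMP and compound in 50 mM HEPES pH 7.4, 0.01% Tween-20, 1 h at RT. Remaining AMP read via CellTiter-Glo luminescence with 1 μM ATP after 30 min; IC50 from nonlinear regression of % inhibition.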

A further test has as its target T2, human CD73 (Homo sapiens, UniProt P21589).
T2 construct: expressed in transfected cells
T2 sequence (P21589 27-549): T1 sequence (P21589 27-549)
Put plainly: Inhibitor activity against CD73 in cell based assay (CD73 expressing CHO-K1 cells). The settings on record: CHO-K1 cells expressing human CD73, 150 μM AMP, 4 hours of incubation; read-out: CHO-K1 CELL_VARIANT: CD73 IC50. The essentials:
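Stable human CD73 CHO-K1 cells, 1×10^4/well, exposed to an 8-point 1:3 compound series (top 10 μM, 0.2% DMSO) plus 150 μM AMP for 4 h. Remaining AMP in the supernatant was read by CellTiter-Glo 2.0 luminescence with 1 μM ATP after 30 min at room temperature. IC50 came from nonlinear regression of % inhibition against cell and media-only controls.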

Turning to `CC1(C)CNCCN1c1ccnc(O[C@@H]2CCN(c3cn[nH]c(=O)c3Cl)C2)c1` [P-0080, (R)-4-chloro-5-(3-((4-(2,2-dimethylpiperazin-1-yl)pyridin-2-yl)oxy)pyrrolidin-1-yl)pyridazin-3(2H)-one], the pIC50 in test [1] is 5.00 to 9.00; on human CD73, 4.00 to 5.00.

In the case of `Cc1noc(C)c1-c1ccnc(O[C@H]2CN(c3cn[nH]c(=O)c3Cl)C[C@@H]2F)c1` [P-0180, 4-chloro-5-((3S,4S)-3-((4-(3,5-dimethylisoxazol-4-yl)pyridin-2-yl)oxy)-4-fluoropyrrolidin-1-yl)pyridazin-3(2H)-one], the negative-log IC50 (pIC50) (in test [1]; at human CD73) was 5.00 to 9.00 each time.

For `Cc1noc(C)c1-c1cc(O[C@@H]2CCN(c3cnn(CCN)c(=O)c3Cl)C2)ncn1` [P-0141, (R)-2-(2-aminoethyl)-4-chloro-5-(3-((6-(3,5-dimethylisoxazol-4-yl)pyrimidin-4-yl)oxy)pyrrolidin-1-yl)pyridazin-3(2H)-one], the negative logarithm of the IC50 (pIC50) (in test [1]; at human CD73) was 5.00 to 9.00 in each case.

For `CCCS(=O)(=O)Nc1ccc(-c2ccnc(O[C@@H]3CCN(c4cn[nH]c(=O)c4Cl)C3)c2)c(F)c1` [P-0204, (R)-N-(4-(2-((1-(5-chloro-6-oxo-1,6-dihydropyridazin-4-yl)pyrrolidin-3-yl)oxy)pyridin-4-yl)-3-fluorophenyl)propane-1-sulfonamide], the negative-log IC50 (pIC50) (in test [1]; on human CD73) was 5.00 to 9.00 throughout.

With `O=C(Nc1ccc(-c2ccnc(O[C@@H]3CCN(c4cn[nH]c(=O)c4Cl)C3)c2)c(F)c1)c1ccccc1` [P-0214, (R)-N-(4-(2-((1-(5-chloro-6-oxo-1,6-dihydropyridazin-4-yl)pyrrolidin-3-yl)oxy)pyridin-4-yl)-3-fluorophenyl)benzamide], the negative-log IC50 (pIC50) (in test [1]; at human CD73) was 5.00 to 9.00 each time.

For the compound `Cc1nn(C2(CC#N)CCC2)c(C)c1-c1ccnc(O[C@@H]2CCN(c3cn[nH]c(=O)c3Cl)C2)c1` [P-0036, (R)-2-(1-(4-(2-((1-(5-chloro-6-oxo-1,6-dihydropyridazin-4-yl)pyrrolidin-3-yl)oxy)pyridin-4-yl)-3,5-dimethyl-1H-pyrazol-1-yl)cyclobutyl)acetonitrile], the pIC50 (in test [1]; at human CD73) was 5.00 to 9.00 in each case.

For the compound `O=c1[nH]ncc(N2CC[C@@H](Oc3cc(N4CCC(CO)(CCl)CC4)ccn3)C2)c1Cl` [P-0083, (R)-4-chloro-5-(3-((4-(4-(chloromethyl)-4-(hydroxymethyl)piperidin-1-yl)pyridin-2-yl)oxy)pyrrolidin-1-yl)pyridazin-3(2H)-one], the negative-log IC50 (pIC50) (in test [1]; on human CD73) was 5.00 to 9.00 each time.

As for `Cc1noc(C)c1-c1cc(O[C@@H]2CCN(c3cnn(CCO)c(=O)c3Cl)C2)ccn1` [P-0136, (R)-4-chloro-5-(3-((2-(3,5-dimethylisoxazol-4-yl)pyridin-4-yl)oxy)pyrrolidin-1-yl)-2-(2-hydroxyethyl)pyridazin-3(2H)-one], the pIC50 (in test [1]; at human CD73) was 5.00 to 9.00 throughout.

As to `Cc1nn(CC(C)(C)O)c(C)c1-c1cc(O[C@@H]2CCN(c3cnn(CCO)c(=O)c3Cl)C2)ncn1` [P-0014, (R)-4-chloro-5-(3-((6-(1-(2-hydroxy-2-methylpropyl)-3,5-dimethyl-1H-pyrazol-4-yl)pyrimidin-4-yl)oxy)pyrrolidin-1-yl)-2-(2-hydroxyethyl)pyridazin-3(2H)-one], the negative logarithm of the IC50 (pIC50) (in test [1]; at human CD73) was 5.00 to 9.00 in each case.

As for `Cc1cnn(C)c1-c1cc(F)nc(O[C@@H]2CCN(c3cn[nH]c(=O)c3Cl)C2)c1` [P-0175, (R)-4-chloro-5-(3-((4-(1,4-dimethyl-1H-pyrazol-5-yl)-6-fluoropyridin-2-yl)oxy)pyrrolidin-1-yl)pyridazin-3(2H)-one], the pIC50 (in test [1]; on human CD73) was 5.00 to 9.00 in each case.

Turning to `Cc1nn(C)c(C)c1-c1cccc(O[C@@H]2CCN(c3cn[nH]c(=O)c3Cl)C2)c1` [P-0198, (R)-4-chloro-5-(3-(3-(1,3,5-trimethyl-1H-pyrazol-4-yl)phenoxy)pyrrolidin-1-yl)pyridazin-3(2H)-one], the pIC50 (in test [1]; at human CD73) was 5.00 to 9.00 throughout.

In the case of `Cc1nn(CC2(F)COC2)c(C)c1-c1ccnc(O[C@@H]2CCN(c3cn[nH]c(=O)c3Cl)C2)c1` [P-0130, (R)-4-chloro-5-(3-((4-(1-((3-fluorooxetan-3-yl)methyl)-3,5-dimethyl-1H-pyrazol-4-yl)pyridin-2-yl)oxy)pyrrolidin-1-yl)pyridazin-3(2H)-one], the pIC50 (in test [1]; at human CD73) was 5.00 to 9.00 in each case.

As to `Cc1noc(C)c1-c1ccnc(O[C@@H]2CCN(c3cnn(CCO)c(=O)c3Cl)C2)c1` [P-0176, (R)-4-chloro-5-(3-((4-(3,5-dimethylisoxazol-4-yl)pyridin-2-yl)oxy)pyrrolidin-1-yl)-2-(2-hydroxyethyl)pyridazin-3(2H)-one], the pIC50 (in test [1]; at human CD73) was 5.00 to 9.00 each time.

Consider `Cc1nn(C2(CC#N)COC2)c(C)c1-c1ccnc(O[C@@H]2CCN(c3cn[nH]c(=O)c3Cl)C2)c1` [P-0033, (R)-2-(3-(4-(2-((1-(5-chloro-6-oxo-1,6-dihydropyridazin-4-yl)pyrrolidin-3-yl)oxy)pyridin-4-yl)-3,5-dimethyl-1H-pyrazol-1-yl)oxetan-3-yl)acetonitrile], for which the pIC50 (in test [1]; at human CD73) was 5.00 to 9.00 each time.

Regarding `Cc1nn(C)c(C)c1-c1cc(O[C@@H]2CCN(c3cn[nH]c(=O)c3Cl)C2)cnn1` [P-0157, (R)-4-chloro-5-(3-((6-(1,3,5-trimethyl-1H-pyrazol-4-yl)pyridazin-4-yl)oxy)pyrrolidm-1-yl)pyridazin-3(2H)-one], the pIC50 (in test [1]; on human CD73) was 5.00 to 9.00 in each case.

Take `Cc1noc(C)c1-c1ccnc(O[C@@H]2CCN(c3cn[nH]c(=O)c3Br)C2)c1` [P-0066, (R)-4-bromo-5-(3-((4-(3,5-dimethylisoxazol-4-yl)pyridin-2-yl)oxy)pyrrolidin-1-yl)pyridazin-3(2H)-one]: the negative-log IC50 (pIC50) (in test [1]; on human CD73) was 5.00 to 9.00 throughout.

Take `Cc1nn(CC2(C)COC2)c(C)c1-c1ccnc(O[C@@H]2CCN(c3cnn(CCO)c(=O)c3Cl)C2)c1` [P-0112, (R)-4-chloro-5-(3-((4-(3,5-dimethyl-1-((3-methyloxetan-3-yl)methyl)-1H-pyrazol-4-yl)pyridin-2-yl)oxy)pyrrolidin-1-yl)-2-(2-hydroxyethyl)pyridazin-3(2H)-one]: the pIC50 (in test [1]; on human CD73) was 5.00 to 9.00 each time.

On to `Cc1nn(CC2(F)CNC2)c(C)c1-c1cc(F)nc(O[C@@H]2CCN(c3cn[nH]c(=O)c3Cl)C2)c1` [P-0154, (R)-4-chloro-5-(3-((6-fluoro-4-(1-((3-fluoroazetidin-3-yl)methyl)-3,5-dimethyl-1H-pyrazol-4-yl)pyridin-2-yl)oxy)pyrrolidin-1-yl)pyridazin-3(2H)-one], for which the pIC50 (in test [1]; at human CD73) was 5.00 to 9.00 in each case.

For the compound `CCCNS(=O)(=O)c1cc(F)c(-c2ccnc(O[C@@H]3CCN(c4cn[nH]c(=O)c4Cl)C3)c2)c(F)c1` [P-0208, (R)-4-(2-((1-(5-chloro-6-oxo-1,6-dihydropyridazin-4-yl)pyrrolidin-3-yl)oxy)pyridin-4-yl)-3,5-difluoro-N-propylbenzenesulfonamide], the negative logarithm of the IC50 (pIC50) (in test [1]; on human CD73) was 5.00 to 9.00 each time.
